According to ChEMBL document CHEMBL1131406, “Tripeptide growth hormone secretagogues” (Bioorg Med Chem Lett, 1998):

How the values were obtained:
[1] = species: Rattus norvegicus; assay: Tested in vitro for growth hormone release from rat pituitary cells; format: functional, cell-based, Pituitary gland cell
[2] = species: Rattus norvegicus; assay: Compound was tested in vitro for growth hormone release from rat pituitary cells; Inactive; format: functional, cell-based; details: pituitary gland cell
[3] = Rattus norvegicus, Pituitary gland cell

Row | Structure (SMILES) | EC50 [1, 3] [nM] | further results
1 | CCOC(=O)[C@@H](CCc1ccccc1)NC(=O)[C@@H](Cc1c[nH]c2ccccc12)NC(=O)C(C)(C)N |  | EC50 ([1]; pituitary gland cell): 50 nM
2 | CCOC(=O)[C@H](Cc1cccc2ccccc12)NC(=O)[C@@H](Cc1c[nH]c2ccccc12)NC(=O)C(C)(C)N | 40 | 
3 | CC(C)(N)C(=O)N[C@H](Cc1c[nH]c2ccccc12)C(=O)NCCCCc1ccccc1 | 700 | 
4 | CCNC(=O)[C@@H](CCc1ccccc1)NC(=O)[C@@H](Cc1c[nH]c2ccccc12)NC(=O)C(C)(C)N | 246 | 
5 | CC(C)(N)C(=O)N[C@H](Cc1c[nH]c2ccccc12)C(=O)NCc1ccc2ccccc2c1 | 85 | 
6 | CC(C)(N)C(=O)N[C@H](Cc1c[nH]c2ccccc12)C(=O)N[C@H](CCc1ccccc1)C(=O)O | > 500 | 
7 | CCOC(=O)[C@H](Cc1ccccc1)N(C)C(=O)[C@@H](Cc1c[nH]c2ccccc12)NC(=O)C(C)(C)N | 40 | 
8 | CCOC(=O)[C@H](CCCc1ccccc1)NC(=O)[C@@H](Cc1c[nH]c2ccccc12)NC(=O)C(C)(C)N | 820 | 
9 | CC(C)(N)C(=O)N[C@H](Cc1c[nH]c2ccccc12)C(=O)NCCc1ccccc1 |  | EC50 [2]: Not Active
10 | CCOC(=O)[C@H](CCc1ccccc1)N(C)C(=O)[C@@H](Cc1c[nH]c2ccccc12)NC(=O)C(C)(C)N | 270 | 
11 | CCOC(=O)[C@@H](CCc1ccccc1)NC(=O)[C@H](Cc1c[nH]c2ccccc12)NC(=O)C(C)(C)N |  | EC50 [2]: Not Active
12 | CC(C)(N)C(=O)N[C@H](Cc1c[nH]c2ccccc12)C(=O)NCCc1cccc2ccccc12 | 860 | 
13 | CCOC(=O)[C@@H](Cc1ccccc1)NC(=O)[C@@H](Cc1c[nH]c2ccccc12)NC(=O)C(C)(C)N | 350 | 
14 | CC(C)(N)C(=O)N[C@H](Cc1c[nH]c2ccccc12)C(=O)NCc1cccc2ccccc12 |  | EC50 [2]: Not Active
15 | CCOC(=O)[C@@H](CCc1ccccc1)NC(=O)[C@@H](Cc1cccc2ccccc12)NC(=O)C(C)(C)N | > 50 | 
16 | COC(=O)[C@@H](CCc1ccccc1)NC(=O)[C@@H](Cc1c[nH]c2ccccc12)NC(=O)C(C)(C)N | 18 | 
17 | CCOC(=O)[C@H](Cc1ccc2ccccc2c1)NC(=O)[C@@H](Cc1c[nH]c2ccccc12)NC(=O)C(C)(C)N | 2000 | 
18 | CCOC(=O)[C@@H](CCCc1ccccc1)NC(=O)[C@@H](Cc1c[nH]c2ccccc12)NC(=O)C(C)(C)N | 1140 | 
19 | CC(C)OC(=O)[C@@H](CCc1ccccc1)NC(=O)[C@@H](Cc1c[nH]c2ccccc12)NC(=O)C(C)(C)N | 4 | 
20 | CC(C)(N)C(=O)N[C@H](Cc1c[nH]c2ccccc12)C(=O)NCCCc1ccccc1 | 390 | 
21 | CCOC(=O)[C@@H](CCc1ccccc1)NC(=O)[C@@H](Cc1ccc2ccccc2c1)NC(=O)C(C)(C)N |  | EC50 [2]: Not Active
22 | CC(C)(N)C(=O)N[C@H](Cc1c[nH]c2ccccc12)C(=O)N[C@H](CCc1ccccc1)C(=O)OCc1ccccc1 | 500 | 
23 | CCOC(=O)[C@H](CCc1ccccc1)NC(=O)[C@@H](Cc1c[nH]c2ccccc12)NC(=O)C(C)(C)N | 3 | 
24 | CCOC(=O)[C@H](Cc1ccccc1)NC(=O)[C@@H](Cc1c[nH]c2ccccc12)NC(=O)C(C)(C)N | 240 | 
